“And” between values parts separate entries of the source, which are not always exact repeats. Identical values can stand only once. Toxic doses and inconclusive results are not listed.
Tested on: P388 leukemia ip, CD2F1 mice, survival T/C
Test: NCI In Vivo Anticancer Drug Screen. Data for tumor model P388 Leukemia (intraperitoneal) in CD2F1 (CDF1) mice
Settings: endpoint: median survival time, higher = longer survival
Summary of the method: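 Mice carrying the transplanted tumor received test compound or vehicle. Survival was recorded in each group, and the value is the treated-group measurement divided by that of the vehicle-treated control group.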

[1] = dose: 60.0 mg/kg/injection, schedule: Q01DX005 (ip), vehicle: Klucel (hydroxypropylcellulose) (HPC)
[2] = dose: 120.0 mg/kg/injection, schedule: Q01DX005 (ip), vehicle: Klucel (hydroxypropylcellulose) (HPC)
[3] = dose: 240.0 mg/kg/injection, schedule: Q01DX005 (ip), vehicle: Klucel (hydroxypropylcellulose) (HPC)
[4] = dose: 50.0 mg/kg/injection, schedule: Q01DX005 (ip), vehicle: Klucel (hydroxypropylcellulose) (HPC)
[5] = dose: 100.0 mg/kg/injection, schedule: Q01DX005 (ip), vehicle: Klucel (hydroxypropylcellulose) (HPC)
[6] = dose: 200.0 mg/kg/injection, schedule: Q01DX005 (ip), vehicle: Klucel (hydroxypropylcellulose) (HPC)
[7] = dose: 50.0 mg/kg/injection, schedule: Q01DX009 (ip), vehicle: saline with Tween-80
[8] = dose: 100.0 mg/kg/injection, schedule: Q01DX009 (ip), vehicle: saline with Tween-80
[9] = dose: 200.0 mg/kg/injection, schedule: Q01DX009 (ip), vehicle: saline with Tween-80
[10] = dose: 12.5 mg/kg/injection, schedule: Q01DX009 (ip), vehicle: Klucel (hydroxypropylcellulose) (HPC)
[11] = dose: 50.0 mg/kg/injection, schedule: Q01DX009 (ip), vehicle: Klucel (hydroxypropylcellulose) (HPC)
[12] = dose: 100.0 mg/kg/injection, schedule: Q01DX001 (ip), vehicle: saline
[13] = dose: 200.0 mg/kg/injection, schedule: Q01DX001 (ip), vehicle: saline
[14] = dose: 400.0 mg/kg/injection, schedule: Q01DX001 (ip), vehicle: saline with Tween-80
[15] = dose: 100.0 mg/kg/injection, schedule: Q04DX002 (ip), vehicle: Klucel (hydroxypropylcellulose) (HPC)
[16] = dose: 200.0 mg/kg/injection, schedule: Q04DX002 (ip), vehicle: Klucel (hydroxypropylcellulose) (HPC)
[17] = dose: 400.0 mg/kg/injection, schedule: Q04DX002 (ip), vehicle: Klucel (hydroxypropylcellulose) (HPC)

In the case of `O=C(NCCS(=O)(=O)O)C1CCCN1` (stereo not drawn), the T/C (dose: 60.0 mg/kg/injection, schedule: Q01DX005 (ip), vehicle: saline) is reported as 100 % of control, the T/C (dose: 120.0 mg/kg/injection, schedule: Q01DX005 (ip), vehicle: saline) is reported as 100 % of control and the T/C (dose: 240.0 mg/kg/injection, schedule: Q01DX005 (ip), vehicle: saline) is reported as 99 % of control.
For `CN(C)Cc1c(O)c2ccc(N(C)C)cc2[nH]c1=O`, the T/C [1] was 92 % of control, the T/C [2] was 90 % of control and the T/C [3] was 96 % of control.
`COc1cc(N)c2c(c1N)C(=O)c1ccccc1C2=O` was tested, and the T/C [4] was 98 % of control, the T/C [5] was 101 % of control and the T/C [6] was 97 % of control.
In the case of `CN(C)CC1(c2ccccc2)C(=O)N(C)C(=O)N(C2CCCCC2)C1=O` (stereo not drawn), the T/C [7] is reported as 100 % of control, the T/C [8] is reported as 105 % of control and the T/C [9] is reported as 115 % of control.
In the case of `CCOC(=O)c1c(C)c(C(=O)OCC)n(CC)c1C=O`, the T/C [7] is reported as 96 % of control, the T/C [8] is reported as 98 % of control and the T/C [9] is reported as 98 % of control.
With `COc1cc(NS(C)(=O)=O)ccc1Nc1c2ccc(N(C)C)cc2nc2cc(N(C)C)ccc12` the T/C (dose: 7.5 mg/kg/injection, schedule: Q01DX005 (ip), vehicle: Klucel (hydroxypropylcellulose) (HPC)) was 162 % of control, the T/C (dose: 15.0 mg/kg/injection, schedule: Q01DX005 (ip), vehicle: Klucel (hydroxypropylcellulose) (HPC)) was 168 % of control and 173 % of control and the T/C (dose: 30.0 mg/kg/injection, schedule: Q01DX005 (ip), vehicle: Klucel (hydroxypropylcellulose) (HPC)) was 174 % of control and 182 % of control. The T/C [1] was 98 % of control and 86 % of control.
For `C1CCC([Se][Se]C2CCCC2)C1`, the T/C [10] was 104 % of control, the T/C (dose: 25.0 mg/kg/injection, schedule: Q01DX009 (ip), vehicle: Klucel (hydroxypropylcellulose) (HPC)) was 110 % of control and the T/C [11] was 99 % of control and 101 % of control.
For `O=C(O)c1cc(-c2ccccc2Cl)nc2cc3ccccc3cc12`, the T/C [11] was 111 % of control, the T/C (dose: 100.0 mg/kg/injection, schedule: Q01DX009 (ip), vehicle: Klucel (hydroxypropylcellulose) (HPC)) was 101 % of control and the T/C (dose: 200.0 mg/kg/injection, schedule: Q01DX009 (ip), vehicle: Klucel (hydroxypropylcellulose) (HPC)) was 101 % of control.
`CCOC(=O)C(=O)Nc1sc(C)c(C)c1C#N` was tested, and the T/C (dose: 50.0 mg/kg/injection, schedule: Q01DX009 (ip), vehicle: saline + alcohol) was 90 % of control, the T/C (dose: 100.0 mg/kg/injection, schedule: Q01DX009 (ip), vehicle: saline + alcohol) was 98 % of control and the T/C (dose: 200.0 mg/kg/injection, schedule: Q01DX009 (ip), vehicle: saline + alcohol) was 105 % of control.
For `CC(=O)N/N=C/c1ccccc1[N+](=O)[O-]`, the T/C (dose: 12.5 mg/kg/injection, schedule: Q01DX009 (ip), vehicle: other) was 97 % of control, the T/C (dose: 25.0 mg/kg/injection, schedule: Q01DX009 (ip), vehicle: other) was 96 % of control and the T/C (dose: 50.0 mg/kg/injection, schedule: Q01DX009 (ip), vehicle: other) was 98 % of control. The T/C (dose: 100.0 mg/kg/injection, schedule: Q01DX009 (ip), vehicle: other) was 107 % of control.
`O=[N+]([O-])CC(O)C(Cl)(Cl)Cl` (stereo not drawn) was tested, and the T/C (dose: 50.0 mg/kg/injection, schedule: Q01DX001 (ip), vehicle: saline) was 107 % of control, the T/C [12] was 107 % of control and the T/C [13] was 107 % of control.
`O=C(NC1(C(=O)O)CC1c1ccccc1)c1ccccc1` (stereo not drawn) was tested, and the T/C [1] was 100 % of control, the T/C [2] was 94 % of control and the T/C [3] was 100 % of control.
`CC(=O)C1(O)CCC2(O)C3(O)CC=C4CC(O)CCC4(C)C3CC(OC(=O)c3ccc(O)cc3)C12C` (stereo not drawn) was tested, and the T/C (dose: 11.75 mg/kg/injection, schedule: Q01DX005 (ip), vehicle: distilled water + Tween-80 + alcohol) was 93 % of control, the T/C (dose: 23.5 mg/kg/injection, schedule: Q01DX005 (ip), vehicle: distilled water + Tween-80 + alcohol) was 94 % of control and the T/C (dose: 47.0 mg/kg/injection, schedule: Q01DX005 (ip), vehicle: distilled water + Tween-80 + alcohol) was 95 % of control. For the same compound, the T/C (dose: 94.0 mg/kg/injection, schedule: Q01DX005 (ip), vehicle: distilled water + Tween-80 + alcohol) was 94 % of control.
For `[Cl][Sn]([Cl])([c]1ccccc1)[c]1ccccc1.c1ccncc1.c1ccncc1`, the T/C (dose: 3.12 mg/kg/injection, schedule: Q01DX009 (ip), vehicle: saline) was 150 % of control, the T/C (dose: 6.25 mg/kg/injection, schedule: Q01DX009 (ip), vehicle: Klucel (hydroxypropylcellulose) (HPC)) was 153 % of control and 166 % of control and the T/C (dose: 6.25 mg/kg/injection, schedule: Q01DX009 (ip), vehicle: saline) was 156 % of control. For the same compound, the T/C [10] was 155 % of control and 180 % of control and the T/C (dose: 12.5 mg/kg/injection, schedule: Q01DX009 (ip), vehicle: saline with Tween-80) was 151 % of control.
`CCOC(=O)c1cnc2ccccc2c1N=[N+]=[N-]` was tested, and the T/C (dose: 60.0 mg/kg/injection, schedule: Q01DX005 (ip), vehicle: saline with Tween-80) was 94 % of control, the T/C (dose: 120.0 mg/kg/injection, schedule: Q01DX005 (ip), vehicle: saline with Tween-80) was 99 % of control and the T/C (dose: 240.0 mg/kg/injection, schedule: Q01DX005 (ip), vehicle: saline with Tween-80) was 103 % of control.
With `CC(C)C1CCC2(C)C(CCC3C4(C)CCCC32OC4=O)C1` (stereo not drawn) the T/C [4] was 104 % of control, the T/C [5] was 99 % of control and the T/C [6] was 101 % of control.
`O=C(Nc1n[nH]c(NC(=O)C(F)(F)F)n1)C(F)(F)F` was tested, and the T/C [4] was 103 % of control, the T/C [5] was 103 % of control and the T/C [6] was 100 % of control.
In the case of `CC(C)(C)[Si](C)(C)OCc1ccccc1N1C(=O)C(N=[N+]=[N-])C1/C=C/c1ccccc1` (stereo not drawn), the T/C (dose: 6.25 mg/kg/injection, schedule: Q01DX001 (ip), vehicle: Klucel (hydroxypropylcellulose) (HPC)) is reported as 101 % of control, the T/C (dose: 12.5 mg/kg/injection, schedule: Q01DX001 (ip), vehicle: Klucel (hydroxypropylcellulose) (HPC)) is reported as 103 % of control and the T/C (dose: 25.0 mg/kg/injection, schedule: Q01DX001 (ip), vehicle: Klucel (hydroxypropylcellulose) (HPC)) is reported as 94 % of control. The T/C (dose: 50.0 mg/kg/injection, schedule: Q01DX001 (ip), vehicle: Klucel (hydroxypropylcellulose) (HPC)) was 101 % of control, the T/C (dose: 100.0 mg/kg/injection, schedule: Q01DX001 (ip), vehicle: Klucel (hydroxypropylcellulose) (HPC)) was 98 % of control and the T/C [14] was 89 % of control.
`CC(=O)NC1=C(O)C2C(c3ccc(C)cc3)C(C#N)C(=O)N2C1=O` (stereo not drawn) was tested, and the T/C [12] was 105 % of control, the T/C [13] was 97 % of control and the T/C (dose: 400.0 mg/kg/injection, schedule: Q01DX001 (ip), vehicle: saline) was 99 % of control.
With `N#CC(OC1OC(COC2OC(CO)C(O)C(O)C2O)C(O)C(O)C1O)c1ccccc1` (stereo not drawn) the T/C (dose: 25.0 mg/kg/injection, schedule: Q01DX009 (ip), vehicle: water) was 102 % of control and 108 % of control, the T/C (dose: 50.0 mg/kg/injection, schedule: Q01DX009 (ip), vehicle: water) was 101 % of control and 108 % of control and the T/C (dose: 100.0 mg/kg/injection, schedule: Q01DX009 (ip), vehicle: water) was 102 % of control and 105 % of control and 94 % of control. The T/C (dose: 200.0 mg/kg/injection, schedule: Q01DX009 (ip), vehicle: water) was 105 % of control and 109 % of control and 92 % of control, the T/C (dose: 400.0 mg/kg/injection, schedule: Q01DX009 (ip), vehicle: water) was 105 % of control and 110 % of control and 96 % of control and the T/C (dose: 800.0 mg/kg/injection, schedule: Q01DX009 (ip), vehicle: saline) was 98 % of control. The T/C (dose: 800.0 mg/kg/injection, schedule: Q01DX009 (ip), vehicle: water) was 105 % of control and 123 % of control and 96 % of control and the T/C (dose: 1600.0 mg/kg/injection, schedule: Q01DX009 (ip), vehicle: saline) was 100 % of control.
In the case of `CCOP(=O)(Nc1ccc2c(c1)C(=O)c1ccccc1-2)OCC`, the T/C [4] is reported as 102 % of control, the T/C [5] is reported as 96 % of control and the T/C [6] is reported as 96 % of control.
`O=C(Nc1ccccc1)ON=C(c1ccccc1)c1ccccc1` was tested, and the T/C (dose: 100.0 mg/kg/injection, schedule: Q01DX001 (ip), vehicle: saline with Tween-80) was 97 % of control, the T/C (dose: 200.0 mg/kg/injection, schedule: Q01DX001 (ip), vehicle: saline with Tween-80) was 93 % of control and the T/C [14] was 112 % of control.
`N#Cc1ccc(Cl)cc1` was tested, and the T/C [7] was 101 % of control, the T/C [8] was 89 % of control and the T/C [9] was 93 % of control.
For `O=C1CCCC2c3[nH]c4ccccc4c3CCN12` (stereo not drawn), the T/C [15] was 97 % of control, the T/C [16] was 100 % of control and the T/C [17] was 96 % of control.
For `Cn1c(=O)c2nc(-c3ccccc3)nnc2n(CCO)c1=O`, the T/C [15] was 105 % of control, the T/C [16] was 106 % of control and the T/C [17] was 110 % of control.
